Each molecule was assayed on Apolipoprotein B Secretion from HepG2 Cells (assay: Inhibition of Apolipoprotein B secretion from HepG2 cells (ELISA)). Conditions: HepG2 cells, 22-24 hours incubation, ApoB ELISA; Low/High IC50 columns give the 95% confidence interval.
Assay type: cell-based, human
Experimental: Inhibition of Apolipoprotein B Secretion from HepG2 Cells
To assess the inhibitory effect of the compounds of the invention on ApoB production, an endogenously ApoB producing cell line, HEPG2, was implemented in an in vitro ELISA assay. HEPG2 cells are plated at 25,000 per well (96-well plates) in media consisting of DMEM Low Glucose, 1% NEAA (non-essential amino acids), 10% FBS (heat inactivated), 1% L-Glutamine, and 1% Antimycotic-Antibiotic and incubated for 16-18 hours at 37° C. and 5% CO2. After the 16-18 hour incubation, a 12 point half-log serial of the inhibitor (1000 nM-0.003 nM) is prepared, and 1.5 ul of the serial dilution is added to HEPG2 cells, which have had their media decanted and replaced with 148 ul of fresh media, and the cells are incubated for 22-24 hours at 37° C. and 5% CO2. Two and a half hours before the 22-24 hour incubation period is completed, Nunc Maxisorp plates are coated with 100 ul of primary (coating) antibody (goat anti-apoB), diluting to a ratio of 1:1000 in 1% Carbonate-Bicarbonate Coating Buffer and incubated for at least 2 hours at room temperature before the primary antibody is decanted and the wells of the microplate are washed with 200 ul of washing buffer (1% PBS, 0.05% Tween20). Next, 200 ul of blocking buffer (1% PBS, 1:500 Western Block, 5 mg/ml BSA) is added to the wells of the microplate, and incubated for at least 30 mins. Following the 22-24 hours incubation period, cell plates are removed from the incubator, 20 ul of supernatant from each well is aspirated, added to a corresponding well in 96 well plate containing 140 ul of diluent (1:2-Blocking Buffer: Washing Buffer), and mixed. Then, 120 ul is aspirated from the dilutent-supernatant plate, added to the blocked Nunc Maxisorp 96 well plate, and placed at room temperature on a shaker to mix for at least 2 hours. The secondary (capture) antibody (mouse anti-human apoB) is prepared at a ratio of 1:4000, and the detection antibody (goat anti-mouse HRP conjugated antibody) at a ratio of 1:10,000. For each antibody, 100 ul is added to each well of the microplate and the microplate is incubated at room temperature for 2 hours, washing the microplates between each antibody addition. Colorimetric development is achieved by adding 50 ul of TMB reagent to each well, incubating for 5 mins at room temperature, then adding 50 ul of 2M Sulfuric Acid to each well. Absorbance at 450 nm is monitored in an Envision plate reader to measure the amount of ApoB formed.
Results reported as average IC50, low and high IC50 range (95% confidence interval).

IC50 [nM] | SMILES
29.4 | CCOC(=O)C1(COC(=O)Cc2ccc(NC(=O)c3cccc(C)c3-c3ccc(C(F)(F)F)cc3)c(C(=O)N(C)C)c2)NC(=O)c2ccccc21 (centres unmarked) [Example 11]
156 | CCOC(=O)C1(COC(=O)Cc2ccc(NC(=O)c3cccc(C)c3-c3ccc(C(F)(F)F)cc3)c(C(=O)N(C)C)c2)NC(=O)c2ccccc21 (centres unmarked) [Example 12]
0.107 | CCOC(=O)C1(COC(=O)Cc2ccc(NC(=O)c3ccccc3-c3ccc(C(F)(F)F)cc3)c(C(=O)N(C)C)c2)c2ccccc2C(=O)N1CC (centres unmarked) [Example 19]
1.76 | CCOC(=O)C1(COC(=O)Cc2ccc(NC(=O)c3ccccc3-c3ccc(C(F)(F)F)cc3)c(C(=O)N(C)C)c2)c2ccccc2C(=O)N1CC (centres unmarked) [Example 20]
83.5 | CN(C)C(=O)c1cc(CC(=O)OCC2(C(=O)OCc3ccccc3)c3ccccc3C(=O)N2C)ccc1NC(=O)c1ccccc1-c1ccc(C(F)(F)F)cc1 (centres unmarked) [Example 22]
0.333 | CN(C)C(=O)c1cc(CC(=O)OCC2(C(=O)OCc3ccccc3)c3ccccc3C(=O)N2C)ccc1NC(=O)c1ccccc1-c1ccc(C(F)(F)F)cc1 (centres unmarked) [Example 23]
28 | CCOC(=O)C1(COC(=O)Cc2ccc(NC(=O)c3ccccc3-c3ccc(C(F)(F)F)cc3)c(C(=O)N(C)C)c2)NC(=O)c2ccccc21 (centres unmarked) [Example 24]
297 | CCOC(=O)C1(COC(=O)Cc2ccc(NC(=O)c3ccccc3-c3ccc(C(F)(F)F)cc3)c(C(=O)N(C)C)c2)NC(=O)c2ccccc21 (centres unmarked) [Example 25]

SMILES | IC50 [nM]
Cc1cccc(C(=O)Nc2ccc(CC(=O)OCC3(C(=O)OCc4ccccc4)c4ccccc4C(=O)N3C)cc2C(=O)N(C)C)c1-c1ccc(C(F)(F)F)cc1 (single isomer, unassigned; (+)) [Example 10, (+)-Benzyl 1-({2-[3-(Dimethylcarbamoyl)-4-({[6-methyl-4′-(trifluoromethyl)biphenyl-2-yl]carbonyl}amino)phenyl]acetoxy}methyl)-2-methyl-3-oxoisoindoline-1-carboxylate] | 14.1
CCOC(=O)C1(COC(=O)Cc2ccc(NC(=O)c3ccccc3-c3ccc(C(F)(F)F)cc3)c(C(=O)N(C)C)c2)CCCc2ccccc21 (single isomer, unassigned; (+)) [Example 46, (+)-Ethyl 1-({2-[3-(Dimethylcarbamoyl)-4-({[4′-(trifluoromethyl)biphenyl-2-yl]carbonyl}amino)phenyl]acetoxy}methyl)-1,2,3,4-tetrahydronaphthalene-1-carboxylate] | 1.66
Cc1cccc(C(=O)Nc2ccc(CC(=O)OCC3(C(=O)OCc4ccccc4)c4ccccc4C(=O)N3C)cc2C(=O)N(C)C)c1-c1ccc(C(F)(F)F)cc1 (single isomer, unassigned; (-)) [Example 9, (−)-Benzyl 1-({2-[3-(Dimethylcarbamoyl)-4-({[6-methyl-4′-(trifluoromethyl)biphenyl-2-yl]carbonyl}amino)phenyl]acetoxy}methyl)-2-methyl-3-oxoisoindoline-1-carboxylate] | 0.2

Same assay, conditions: Homo sapiens, HepG2, HepG2 cells, 22-24 hours incubation, ApoB ELISA; Low/High IC50 columns give the 95% confidence interval

IC50 [nM] | SMILES
0.846 | CCOC(=O)C1(COC(=O)Cc2ccc(NC(=O)c3ccccc3-c3ccc(C(F)(F)F)cc3)c(C(=O)N(C)C)c2)c2ccccc2C(=O)N1C (racemic) [Example 4]
0.436 | Cc1cccc(C(=O)Nc2ccc(CC(=O)OCC3(C(=O)OCc4ccccc4)c4ccccc4C(=O)N3C)cc2C(=O)N(C)C)c1-c1ccc(C(F)(F)F)cc1 (racemic) [Example 8]
2.16 | CCOC(=O)C1(COC(=O)Cc2ccc(NC(=O)c3ccccc3-c3ccc(C(F)(F)F)cc3)c(C(=O)N(C)C)c2)c2ccccc2C(=O)N1C(C)C (racemic) [Example 14]
1.45 | CCOC(=O)C1(COC(=O)Cc2ccc(NC(=O)c3ccccc3-c3ccc(C(F)(F)F)cc3)c(C(=O)N(C)C)c2)c2ccccc2C(=O)N1CC (racemic) [Example 15]
2.73 | CCOC(=O)C1(COC(=O)Cc2ccc(NC(=O)c3ccccc3-c3ccc(C(F)(F)F)cc3)c(C(=O)N(C)C)c2)c2ccccc2C(=O)N1CC(F)(F)F (racemic) [Example 16]
16.5 | CCOC(=O)C1(COC(=O)Cc2ccc(NC(=O)c3ccccc3-c3ccc(C(F)(F)F)cc3)c(C(=O)N(C)C)c2)NC(=O)c2ccccc21 (racemic) [Example 21]
30.8 | CCOC(=O)C1(COC(=O)Cc2ccc(NC(=O)c3ccccc3-c3ccc(C(F)(F)F)cc3)c(C(=O)N(C)C)c2)c2ccccc2C(=O)N1Cc1ccc(OC)cc1OC (racemic) [Example 27]
3.17 | COC(=O)C1(COC(=O)Cc2ccc(NC(=O)c3ccccc3-c3ccc(C(F)(F)F)cc3)c(C(=O)N(C)C)c2)CCc2ccccc21 (racemic) [Example 28]
2.04 | CCOC(=O)C1(COC(=O)Cc2ccc(NC(=O)c3ccccc3-c3ccc(C(F)(F)F)cc3)c(C(=O)N(C)C)c2)CCc2ccccc21 (racemic) [Example 29]
6.5 | CCOC(=O)C1(COC(=O)Cc2ccc(NC(=O)c3ccccc3-c3ccc(C(F)(F)F)cc3)c(C(=O)N(C)C)c2)OC(=O)c2ccccc21 (racemic) [Example 30]
8.47 | CCOC(=O)C1(COC(=O)Cc2ccc(NC(=O)c3ccccc3-c3ccc(C(F)(F)F)cc3)c(C(=O)N(C)C)c2)CCc2cccnc21 (racemic) [Example 37]
0.701 | CCOC(=O)C1(COC(=O)Cc2ccc(NC(=O)c3ccccc3-c3ccc(C(F)(F)F)cc3)c(C(=O)N(C)C)c2)CCCc2ccccc21 (racemic) [Example 41]
0.529 | CCOC(=O)C1(COC(=O)Cc2ccc(NC(=O)c3ccccc3-c3ccc(C(F)(F)F)cc3)c(C(=O)N(C)C)c2)CCCc2cccnc21 (racemic) [Example 42]
0.328 | CCOC(=O)C1(COC(=O)Cc2ccc(NC(=O)c3cccc(C)c3-c3ccc(C(F)(F)F)cc3)c(C(=O)N(C)C)c2)c2ncccc2C(=O)N1CC (racemic) [Example 44]
519 | CCOC(=O)C1(COC(=O)Cc2ccc(NC(=O)c3cccc(C)c3-c3ccc(C(C)(C)C)cc3)c(C(=O)N(C)C)c2)OC(=O)c2ccccc21 (centres unmarked) [Example 2]
15.7 | CCOC(=O)C1(COC(=O)Cc2ccc(NC(=O)c3ccc(C(F)(F)F)cc3-c3ccc(C(F)(F)F)cc3)c(C(=O)N(C)C)c2)OC(=O)c2ccccc21 (centres unmarked) [Example 3]
4.77 | CCOC(=O)C1(COC(=O)Cc2ccc(NC(=O)c3ccccc3-c3ccc(C(F)(F)F)cc3)c(Cl)c2)c2ccccc2C(=O)N1C (centres unmarked) [Example 6]
15.6 | CCOC(=O)C1(COC(=O)Cc2ccc(NC(=O)c3cccc(C)c3-c3ccc(C(F)(F)F)cc3)c(C(=O)N(C)C)c2)c2ccccc2C(=O)N1C (centres unmarked) [Example 7]
7.18 | CCOC(=O)C1(COC(=O)Cc2ccc(NC(=O)c3ccccc3-c3ccc(C(F)(F)F)cc3)c(C(=O)N(C)C)c2)c2ccccc2C(=O)N1C (centres unmarked) [Example 13]
3.07 | CCOC(=O)C1(COC(=O)Cc2ccc(NC(=O)c3ccccc3-c3ccc(C(F)(F)F)cc3)c(C)c2)c2ccccc2C(=O)N1C (centres unmarked) [Example 17]
23.9 | CCOC(=O)C1(COC(=O)Cc2ccc(NC(=O)c3ccccc3-c3ccc(C(F)(F)F)cc3)cc2)c2ccccc2C(=O)N1C (centres unmarked) [Example 18]

SMILES | IC50 [nM]
CCN1C(=O)c2ccccc2C1(COC(=O)Cc1ccc(NC(=O)c2cccc(C)c2-c2ccc(C(F)(F)F)cc2)c(C(=O)N(C)C)c1)C(=O)OC (racemic) [Example 65, methyl 1-({2-[3-(dimethylcarbamoyl)-4-({[6-methyl-4′-(trifluoromethyl)biphenyl-2-yl]carbonyl}amino)phenyl]acetoxy}methyl)-2-ethyl-3-oxoisoindoline-1-carboxylate] | 0.38
CCOC(=O)C1(COC(=O)Cc2ccc(NC(=O)c3ccccc3-c3ccc(C(F)(F)F)cc3)c(C(=O)N(C)C)c2)CCCc2ccccc21 (single isomer, unassigned; (-)) [Example 45, (−)-Ethyl 1-({2-[3-(Dimethylcarbamoyl)-4-({[4′-(trifluoromethyl)biphenyl-2-yl]carbonyl}amino)phenyl]acetoxy}methyl)-1,2,3,4-tetrahydronaphthalene-1-carboxylate] | 1.63
CCOC(=O)[C@]1(COC(=O)Cc2ccc(NC(=O)c3ccccc3-c3ccc(C(F)(F)F)cc3)c(C(=O)N(C)C)c2)c2ccccc2C(=O)N1C [Example 1, Ethyl 1R-({2-[3-(dimethylcarbamoyl)-4-({[4′-(trifluoromethyl)biphenyl-2-yl]carbonyl}amino)phenyl]acetoxy}methyl)-2-methyl-3-oxoisoindoline-1-carboxylate] | 0.495

— patent publication US20130072519A1, “2-PHENYL BENZOYLAMIDES” (priority 2010, published 2013)
